Measured values published in patent US8871787B2, “Stable crystalline salt of (R)-3-fluorophenyl-3,4,5-trifluorobenzylcarbamic acid 1-azabicyclo [2.2.2]oct-3-yl ester” (Laboratorios Salvat, S.A., priority 2007, dated 2014).

system: not listed separately; assay: Salt screening of compound I with several acids (aspect of the salt); assay type: physicochemical; settings: free base and acid in hot ethanol, cooled, solvent evaporated
Description: To select the most suitable salt of compound I and minimize the undesirable hygroscopic properties of the hydrochloride, several acids were tested. The free base of compound I was dissolved in hot ethanol, and then acid solution in hot ethanol was added. The mixture was then stirred and heated for 30 min. After cooling to room temperature, the solvent was removed by evaporation. […]

Compound	Aspect of the salt
O=C(O)C(O)C(O)C(=O)O.O=C(OC1CN2CCC1CC2)N(Cc1cc(F)c(F)c(F)c1)c1cccc(F)c1 (racemic)	Adding MTBE precipitated a white solid
CC1(C)C2CCC1(CS(=O)(=O)O)C(=O)C2.O=C(OC1CN2CCC1CC2)N(Cc1cc(F)c(F)c(F)c1)c1cccc(F)c1 (racemic) [(RS)-10-Camphorsulfonic]	Hygroscopic pink foam
CC(O)C(=O)O.O=C(OC1CN2CCC1CC2)N(Cc1cc(F)c(F)c(F)c1)c1cccc(F)c1 (racemic) [DL-Lactic]	Oil
O=C(O)CC(O)C(=O)O.O=C(OC1CN2CCC1CC2)N(Cc1cc(F)c(F)c(F)c1)c1cccc(F)c1.O=C(OC1CN2CCC1CC2)N(Cc1cc(F)c(F)c(F)c1)c1cccc(F)c1 (racemic) [DL-Malic (0.5 eq)]	Hygroscopic red foam
O=C(O)CC(O)C(=O)O.O=C(OC1CN2CCC1CC2)N(Cc1cc(F)c(F)c(F)c1)c1cccc(F)c1 (racemic) [DL-Malic]	Hygroscopic red foam
CC1(C)C2CCC1(CS(=O)(=O)O)C(=O)C2.O=C(OC1CN2CCC1CC2)N(Cc1cc(F)c(F)c(F)c1)c1cccc(F)c1 [(S)-10-Camphorsulfonic]	Oil
O=C(O)C(O)c1ccccc1.O=C(OC1CN2CCC1CC2)N(Cc1cc(F)c(F)c(F)c1)c1cccc(F)c1 [(S)-Mandelic]	Oil
O=C(OC1CN2CCC1CC2)N(Cc1cc(F)c(F)c(F)c1)c1cccc(F)c1.O=S(=O)(O)c1ccccc1 (stereo not shown) [Benzenesulphonic]	Oil
O=C(O)CC(O)C(=O)O.O=C(OC1CN2CCC1CC2)N(Cc1cc(F)c(F)c(F)c1)c1cccc(F)c1.O=C(OC1CN2CCC1CC2)N(Cc1cc(F)c(F)c(F)c1)c1cccc(F)c1 [D-Malic (0.5 eq)]	Hygroscopic red foam
O=C(O)CC(O)C(=O)O.O=C(OC1CN2CCC1CC2)N(Cc1cc(F)c(F)c(F)c1)c1cccc(F)c1 [D-Malic]	Hygroscopic red foam
O=C(O)C(O)C(O)C(=O)O.O=C(OC1CN2CCC1CC2)N(Cc1cc(F)c(F)c(F)c1)c1cccc(F)c1.O=C(OC1CN2CCC1CC2)N(Cc1cc(F)c(F)c(F)c1)c1cccc(F)c1 [D-Tartaric (0.5 eq)]	White solid crystal precipitated in EtOH.
O=C(O)C=CC(=O)O.O=C(OC1CN2CCC1CC2)N(Cc1cc(F)c(F)c(F)c1)c1cccc(F)c1.O=C(OC1CN2CCC1CC2)N(Cc1cc(F)c(F)c(F)c1)c1cccc(F)c1 (stereo not shown) [Fumaric (0.5 eq)]	White foam
O=C(OC1CN2CCC1CC2)N(Cc1cc(F)c(F)c(F)c1)c1cccc(F)c1.O=C1OC(C(O)CO)C(O)=C1O (stereo not drawn) [L(+)-Ascorbic]	White foam
O=C(O)CC(O)C(=O)O.O=C(OC1CN2CCC1CC2)N(Cc1cc(F)c(F)c(F)c1)c1cccc(F)c1.O=C(OC1CN2CCC1CC2)N(Cc1cc(F)c(F)c(F)c1)c1cccc(F)c1 [L-Malic (0.5 eq)]	Oil
O=C(O)CC(O)C(=O)O.O=C(OC1CN2CCC1CC2)N(Cc1cc(F)c(F)c(F)c1)c1cccc(F)c1 [L-Malic]	Oil
O=C(O)C(O)C(O)C(=O)O.O=C(OC1CN2CCC1CC2)N(Cc1cc(F)c(F)c(F)c1)c1cccc(F)c1.O=C(OC1CN2CCC1CC2)N(Cc1cc(F)c(F)c(F)c1)c1cccc(F)c1 [L-Tartaric (0.5 eq)]	White foam
O=C(O)C=CC(=O)O.O=C(OC1CN2CCC1CC2)N(Cc1cc(F)c(F)c(F)c1)c1cccc(F)c1 (stereo not shown) [Maleic]	Oil
O=C(O)CC(=O)O [Malonic]	Oil
O=C(O)C(O)c1ccccc1.O=C(OC1CN2CCC1CC2)N(Cc1cc(F)c(F)c(F)c1)c1cccc(F)c1 (stereo not shown) [Mandelic]	White foam
CS(=O)(=O)O.O=C(OC1CN2CCC1CC2)N(Cc1cc(F)c(F)c(F)c1)c1cccc(F)c1 (stereo not shown) [Methanesulphonic]	Oil
O=C(O)C(=O)O.O=C(OC1CN2CCC1CC2)N(Cc1cc(F)c(F)c(F)c1)c1cccc(F)c1 (stereo not shown) [Oxalic]	Hygroscopic white foam
CC=CC=CC(=O)O.O=C(OC1CN2CCC1CC2)N(Cc1cc(F)c(F)c(F)c1)c1cccc(F)c1 (stereo not shown) [Sorbic]	Oil
O=C(O)CCC(=O)O [Succinic]	Hygroscopic white foam
Citric	Oil
Fumaric	White foam
L-Tartaric	White foam
Propionic	Hygroscopic white foam

system: patients suffering from Overactive Bladder syndrome; assay: Phase II clinical trial: pharmacodynamics in overactive bladder patients (urodynamic assessments, tolerability); settings: 4 mg o.d., 4 weeks
Description: A pharmacodynamic study of tarafenacin tartrate in patients suffering from Overactive Bladder syndrome was performed to obtain first efficacy and tolerability data in this population.
The study was randomised, double-blind, placebo and active-controlled. Patients received tarafenacin tartrate at the dose of 0.1 or 0.2 mg, tolterodine 4 mg or placebo o.d. during 4 weeks, just after a 2 week single-blind wash-out period in which all patients received placebo. Urodynamic assessments were performed at baseline and after 4 weeks administration.
It was planned to screen approximately 100 patients and randomize 77 patients, to obtain outcome data on 63 patients. Patients who entered the study were randomized into the four treatment groups during the double blind treatment period.
After a Screening visit and a 14 day washout single blind period (placebo run in), patients were randomized to one of the four treatment arms by a 2:2:2:1 randomization schedule. In a single blind period, only the patients were blinded. During the treatment period, each patient received tarafenacin tartrate 0.1 mg/tarafenacin tartrate 0.2 mg/tolterodine (ER) 4 mg/placebo. Identical capsules were used to maintain the study blind.
The end of study procedures were performed at the Day 28 visit (End of Treatment [EOT]). A study follow up was conducted at Day 35 either telephonically or the patient was called to the clinic (End of Study [EOS]).
The primary endpoint was the pharmacodynamic endpoints and they were assessed as the mean change from baseline to Day 28 in urodynamic, salivary flow, and accommodation near point pharmacodynamic assessments.

Compound	incidence of treatment emergent adverse events
Cc1ccc(O)c([C@H](CCN(C(C)C)C(C)C)c2ccccc2)c1 [tolterodine, reference compound]	36%

same assay, conditions: human, in vivo

Compound	increase in infused volume	increase in volume at first desire to void	increase in volume at strong desire to void
Cc1ccc(O)c([C@H](CCN(C(C)C)C(C)C)c2ccccc2)c1 [tolterodine, reference compound]	20 mL	33 mL	42 mL
